Among the data in patent US5118681A (priority 1989, dated 1992) are MIC and pest or weed control values, retold here.

Molecules are shown by their SMILES. In brackets after ≈: the same amount, converted by molar mass. Bounds are passed on as bounds.

One assay deals with A.n. In words: Minimum Inhibitory Concentration Test, alternate (Table 4), A.n. In kind it is cell-based, Aspergillus niger. Particulars: Aspergillus niger, TSB, 72 hours. In short, it runs like this: (§1)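 Compound in acetone was diluted into TSB and serially diluted 1:1 from 250 ppm down to 0.8 ppm, in duplicate. Plates were inoculated with diluted 24 h culture and incubated 3 days at 30° C; MIC recorded as lowest concentration with no growth.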

For another assay, the system named is E.c. The assay can be described thus: Minimum Inhibitory Concentration Test, alternate (Table 4), E.c. In kind it is cell-based, Escherichia coli. Particulars: Escherichia coli, TSB, 72 hours. The method, then:
(§2) A 125 μl aliquot of 10,000 ppm test compound in acetone was added to 4.88 ml of TSB to provide a 250 ppm solution. From this solution, 100 μL was transferred to the first row of two microtiter plate columns. Both replicates and five additional compounds were all serially diluted 1:1 to a final concentration of 0.8 ppm in TSB.
(§3) Inoculation was accomplished by diluting a 24 hr Ps fl culture, four mls per 36 mls of phosphate buffer solution. A Dynatech autoinoculator was used to transfer 1.5 μl of this cell suspension to the microtiter plates. The plates were incubated at 30° C. for 3 days before the lowest concentration at which no growth occurs was recorded in the database. The SOK data and MIC test data on Ps.fl, Ps.ae, E.c, and S.a. bacteria and Candida albicans (C.alb), A.n and A.p fungi are listed in Table 4.

The subject of the next assay is Ps.ae. In words: Minimum Inhibitory Concentration Test, alternate (Table 4), Ps.ae. In kind it is cell-based, Pseudomonas aerugenosa. Particulars: Pseudomonas, TSB, 72 hours.
Assay [1] concerns Erysiphe graminis (f. sp. tritici). The assay can be described thus: whole plant or invertebrate. In kind it is in vivo. Particulars: Blumeria graminis; read-out: % control WPM.
For another assay, the system named is Pseudomonas fluorescens. The assay can be described thus: Minimum Inhibitory Concentration Test, alternate (Table 4), Ps.fl. In kind it is cell-based. Particulars: Pseudomonas fluorescens, TSB, 72 hours, 30° C. In short, it runs like this:
as §1

Assay [2] deals with Pellicularia filamentosa (f. sp. sasiki). The assay can be described thus: whole plant or invertebrate. Particulars: 120 h; read-out: % control RSB. In kind it is in vivo.
The next assay has as its system Candida albicans (C.alb). The assay can be described thus: Minimum Inhibitory Concentration Test, alternate (Table 4), C.alb. In kind it is cell-based. Particulars: Candida albicans, TSB, 72 hours. As for the experimental part: as §2, §3
The test system of another assay is S.a. The assay can be described thus: Minimum Inhibitory Concentration Test, alternate (Table 4), S.a. In kind it is cell-based, Staphylococcus aureus. The following applies: Staphylococcus aureus, TSB, 72 hours. The method, then: as §2, §3
Assay [3] deals with Puccinia graminis (f. sp. tritici Race 15B-2). The assay can be described thus: whole plant or invertebrate. In kind it is in vivo. Particulars: 336 h, read-out: % control WSR.
Assay [4] relates to Pseudoperonospora cubensis. The assay can be described thus: whole plant or invertebrate. In kind it is in vivo. Particulars: Pseudoperonospora cubensis, in Cucumis sativus, 168 h; read-out: % control CDM.
The next assay has as its system Phytophthora infestans. The assay can be described thus: whole plant or invertebrate. Particulars: Phytophthora infestans, in Solanum lycopersicum, 96 h, read-out: % control TLB. In kind it is in vivo.
The subject of a further assay is A.p. The assay can be described thus: Minimum Inhibitory Concentration Test, alternate (Table 4), A.p. The following applies: Aureobasidium pullulans, TSB, 72 hours. In kind it is cell-based. As for the experimental part: as §2, §3
A further assay relates to Piricularia oryzae. In words: whole plant or invertebrate. In kind it is in vivo. Particulars: Pyricularia oryzae, read-out: % control RB.
Assay [5] has as its system Puccinia recondita (f. sp. tritici Races PKB and PLD). In words: whole plant or invertebrate. In kind it is in vivo. Particulars: Puccinia recondita, 240 h; read-out: % control WLR.

As to `CCCCCNC(=O)/C=C\SC(C(C)=O)C(C)=O` [Example 3, N-n-pentyl-cis-3-[3-(2,4-pentanedionyl)thio]acrylamide], the MIC in the assay on A.n was 31 to 63 mg/L (≈ 114 to 232 µM); with E.c it was 125 to 250 mg/L (≈ 461 to 921 µM); with Ps.ae, greater than 500 mg/L; against Pseudomonas fluorescens, greater than 500 mg/L; in the assay on Candida albicans (C.alb) it was 31 mg/L (≈ 114 µM); against S.a it was 125 mg/L (≈ 461 µM). Also, the MIC with A.p turned out to be 8 mg/L (≈ 29.5 µM). The pest or weed control at 100 ppm in assay [1] came to 0%; in the assay with Phytophthora infestans, 40%. The pest or weed control at 300 ppm in assay [2] is 0%; in assay [3], 60%; in assay [4], 98%; in the assay with Piricularia oryzae, 0%.
As for `CCCCCCCNC(=O)/C=C\SC(C(C)=O)C(C)=O` [Example 4, N-n-heptyl-cis-3-[3-(2,4-pentanedionyl)thio]acrylamide], the MIC in the assay on A.n was 16 to 63 mg/L (≈ 53.4 to 210 µM); in the assay on E.c it was greater than 500 mg/L; with Ps.ae, greater than 500 mg/L; in the assay on Pseudomonas fluorescens, greater than 500 mg/L; against Candida albicans (C.alb), less than 4 mg/L; against S.a, 63 mg/L (≈ 210 µM). In the assay with A.p, this molecule returned an MIC of less than 4 mg/L. Also, the pest or weed control at 100 ppm in assay [1] is 0%. For the same molecule, the pest or weed control at 300 ppm in assay [2] amounted to 0%; in [3] it was 80%. Moreover, the figures for the pest or weed control at 200 ppm (in assay [4]; in the assay on Phytophthora infestans; in the assay on Piricularia oryzae) were 98%, 100% and 60%, respectively.
With `CCCCCCNC(=O)/C=C\SC(C(C)=O)C(C)=O` [Example 5, N-n-hexyl-cis-3-[3-(2,4-pentanedionyl)thio]acrylamide], the MIC was 31 to 63 mg/L (≈ 109 to 221 µM) against A.n; greater than 500 mg/L against E.c; greater than 500 mg/L against Ps.ae; greater than 500 mg/L against Pseudomonas fluorescens; 16 mg/L (≈ 56.1 µM) against Candida albicans (C.alb); 63 to 125 mg/L (≈ 221 to 438 µM) with S.a. In the assay with A.p, this molecule displayed an MIC of less than 4 mg/L. For the same molecule, the pest or weed control at 300 ppm in [1] turned out to be 0%; in assay [2], 0%; in assay [3], 70%. For the same molecule, the results for the pest or weed control at 200 ppm (in [4]; with Phytophthora infestans; in the assay with Piricularia oryzae) were 100%, 95% and 90%, respectively.
Consider `CCCCCCNC(=O)/C(Cl)=C(/Cl)SC(C(C)=O)C(C)=O` [Example 7, N-n-hexyl-2,3-dichloro-cis-3-[3-(2,4-pentanedionyl)thio]acrylamide], for which the MIC is 8 to 63 mg/L (≈ 22.6 to 178 µM) in the assay with A.n; 125 mg/L (≈ 353 µM) with E.c; 500 mg/L (≈ 1410 µM) against Ps.ae; 250 to 500 mg/L (≈ 706 to 1410 µM) with Pseudomonas fluorescens; 31 mg/L (≈ 87.5 µM) against Candida albicans (C.alb); 125 mg/L (≈ 353 µM) against S.a. The same molecule registered an MIC against A.p of 8 mg/L (≈ 22.6 µM). Besides, the pest or weed control at 300 ppm came to 0% in [1]; 0% in [2]; 60% in assay [3]; 95% in assay [4]; 20% in the assay with Phytophthora infestans.
As to `CCCCCCCCNC(=O)/C=C\SC(C(C)=O)C(=O)CC` (stereo not drawn) [Example 10, N-n-octyl-cis-3-[3-(2,4-hexanedionyl)thio]acrylamide], the MIC against A.n and against Pseudomonas fluorescens was greater than 500 mg/L throughout. Besides, the pest or weed control at 200 ppm amounted to 30% in assay [1]; 0% in assay [2]; 80% in [3]; 100% in assay [4]; 98% in the assay with Phytophthora infestans; 95% with Piricularia oryzae.
`CCCCCCCCNC(=O)/C=C\SC(C(=O)Nc1ccccc1OC)C(=O)OCC` (stereo not drawn) [Example 53, N-n-octyl-cis-3-{2-[ethyl-N-(2-methoxyphenyl)malonamido]thio}acrylamide]: the minimum inhibitory concentration (MIC) against A.n is 500 mg/L (≈ 1110 µM); against Pseudomonas fluorescens, greater than 500 mg/L. The pest or weed control at 100 ppm was 0% in assay [1]; 0% in assay [2]; 0% in assay [3]; 100% in [4]; 97% in the assay with Phytophthora infestans; 0% in assay [5]. For the same molecule, the pest or weed control at 100 ppm with Piricularia oryzae turned out to be 90%.
For the molecule `CCCCCCCCNC(=O)/C=C\SC(C(=O)Nc1cccc(C)c1)C(=O)OCC` (stereo not drawn) [Example 54, N-n-octyl-cis-3-{2-[ethyl-N-(3-methylphenyl)malonamido]thio}acrylamide], the MIC against A.n and with Pseudomonas fluorescens was greater than 500 mg/L throughout. Besides, the pest or weed control at 100 ppm in assay [1] turned out to be 0%; in assay [2], 0%; in [3], 0%; in assay [4] it was 97%; in the assay on Phytophthora infestans it was 80%; in [5], 0%. For the same molecule, the pest or weed control at 100 ppm in the assay with Piricularia oryzae worked out at 87%.
As for `CCCCCCCCNC(=O)/C=C\SC(C(=O)c1ccccc1)C(=O)c1ccccc1` [Example 67, N-n-octyl-cis-3-[2-(1,3-diphenyl-1,3-propanedionyl)thio]acrylamide], the pest or weed control at 100 ppm in assay [1] stood at 0%; in [2], 0%; in assay [3], 0%; in the assay with Phytophthora infestans it was 0%; in assay [5] it was 0%; in the assay on Piricularia oryzae it was 90%.
With `CCCCCCCCNC(=O)/C=C\SC(C(=O)c1ccccc1)C(=O)c1cccn1C` (stereo not drawn) [Example 68, N-n-octyl-cis-3-{2-[1-phenyl-3-(1-methylpyrroyl-2-yl)-1,3-propanedionyl]thio}acrylamide], the pest or weed control at 100 ppm in assay [1] was determined as 0%; in [2], 0%; in assay [3], 0%; in the assay on Phytophthora infestans, 60%; in assay [5], 0%; in the assay on Piricularia oryzae, 80%. The same molecule yielded an MIC against Pseudomonas fluorescens greater than 250 mg/L.

The MIC is the lowest concentration that inhibits growth of the organism. A lower MIC goes with greater potency.
